Measurements from US7786098B2, “Fluoroalkoxycombretastatin derivatives, method for producing the same and use thereof” (Zhejiang Dade Pharmaceutical Group Co. Ltd., priority 2006, dated 2010).
Like-named read-outs stand apart in the source and are kept apart here.

Columns and labels:
[1] = system: H460 human lung cancer cell; test: In vitro antitumor activity evaluation (SRB/MTT, 72 hours), H460; type: cell-based; settings: Logit model, read-out: IC50 Non-small cell lung cancer H460
Procedure: (§1) The tumor cell cultured in vitro being administrated with fluoroalkoxycombretastatin for 72 hours, the MTT and SRB assays was used to evaluate its inhibition of tumor proliferation.
(§2) Cell groups: H460 human lung cancer cell, SGC7901: human stomach cancer cell, HT-29 human colon cancer cell, Bel-7402 human liver cancer cell.
(§3) Experiment design: cells were warm-cultured with the compounds in different concentrations (100, 10, 1, 0.1, 0.01, 0.001 μM) for 72 hours. SRB assay was used to evaluate the inhibition degree of the compounds to cell proliferation. The inhibition rate was calculated, and IC50 was calculated by using Logit model according to the inhibition rate. And the antitumor activity of compounds in vitro was compared.
(§4) The inhibition rate was expressed using the following equation: Inhibition rate (%)=[(average OD value of control group−average OD value of experimental group)/average OD value of control group]×100%.

[2] = system: HT-29 human colon cancer cell; test: In vitro antitumor activity evaluation (SRB/MTT, 72 hours), HT-29; type: cell-based; settings: Logit model, read-out: IC50 Colon cancer HT29
Procedure: as §1, §2, §3, §4

[3] = system: SGC7901 human stomach cancer cell; test: In vitro antitumor activity evaluation (SRB/MTT, 72 hours), SGC-7901; type: cell-based; settings: Logit model
Procedure: as §1, §2, §3, §4

[4] = system: Bel-7402 human liver cancer cell; test: In vitro antitumor activity evaluation (SRB/MTT, 72 hours), Bel-7402; type: cell-based; settings: Logit model
Procedure: as §1, §2, §3, §4

[5] = system: human umbilical vein endothelial cells (HUVEC); test: In vitro neovascular inhibition evaluation; type: cell-based; settings: same method as Example 15 (72 hours)
Procedure: as §1, §3, §4
Anti-angiogenesis effects of fluoroalkoxycombretastatins were assessed in human umbilical vein endothelial cells (HUVEC) using the same method in Example 15.

tubulin = settings: U.S. Pat. No. 5,561,122; WO 9935150; cited from earlier work
tumor = settings: within 4 to 6 hours after the treatment of CA-4, cancer patients; cited from earlier work
[6] = Homo sapiens, NCI-H460, SRB assay
[7] = Homo sapiens, SGC-7901, SRB assay
[8] = Homo sapiens, Bel-7402, SRB assay

Structure (SMILES)	IC50 [1, 6]	IC50 ([2]; Homo sapiens, HT-29, SRB assay)	IC50 [3, 7]	IC50 [4, 8]	IC50 ([5]; Homo sapiens, HUVEC)	IC50 ([1]; SRB assay)	IC50 ([2]; SRB assay)	IC50 ([3]; SRB assay)	inhibition of tubulin polymerization (tubulin)	IC50 ([4]; SRB assay)	blood flow (tumor)	tumor cells died (tumor)	IC50 [5]
COc1cc(/C=C\c2ccc(OC(F)F)c(N)c2)cc(OC)c1OC [DD8021, (Z)-1-(3,4,5-trimethoxyphenyl)-2-(3′-amino-4′-difluoromethoxyphenyl)-ethene]	36 nM	2250 nM	18 nM	830 nM	2 nM	–	–	–	–	–	–	–	–
COc1cc(/C=C\c2ccc(OCC(F)(F)F)c(O)c2)cc(OC)c1OC [DD8031, (Z)-1-(3,4,5-trimethoxyphenyl)-2-(3′-hydroxy-4′-trifluoroethoxyphenyl)-ethene]	5 nM	79 nM	5 nM	300 nM	1 nM	–	–	–	–	–	–	–	–
COc1cc(/C=C\c2ccc(OC(F)F)c(O)c2)cc(OC)c1OC [DD8011, (Z)-1-(3,4,5-trimethoxyphenyl)-2-(3′-hydroxy-4′-difluoromethoxyphenyl)-ethene]	44 nM	3000 nM	22 nM	920 nM	2 nM	–	–	–	–	–	–	–	–
COc1ccc(/C=C\c2cc(OC)c(OC)c(OC)c2)cc1O [CA-4, combretastatin A-4, reference compound]	–	–	–	–	–	27 nM	2380 nM	10 nM	exceptionally strong inhibitors of tubulin polymerization	750 nM	decreased obviously	more than 95%	3 nM
COc1ccc(/C=C\c2cc(OC)c(OC)c(OC)c2)c(O)c1O [CA-1, combretastatin A-1]	–	–	–	–	–	–	–	–	exceptionally strong inhibitors of tubulin polymerization	–	–	–	–
COc1cc(/C=C\c2ccc(OCC(F)(F)F)c(N)c2)cc(OC)c1OC [DD8041, (Z)-1-(3,4,5-trimethoxyphenyl)-2-(3′-amino-4′-trifluoroethoxyphenyl)-ethene]	5 nM	68 nM	3 nM	280 nM	1 nM	–	–	–	–	–	–	–	–
